The target in assay [1] is Human α2δ-1 subunit of Cav2.2 calcium channel (Homo sapiens, UniProt P54289). Nature of the assay: Human α2δ-1 subunit of Cav2.2 calcium channel assay ([3H]-Gabapentin binding). The settings on record: human α2δ-1 enriched membranes, 15 nM [3H]-Gabapentin, binding expressed as Ki; read-out: α2δ1 binding activity. Here is the method:
Human α2δ-1 Subunit of Cav2.2 Calcium Channel Assay
Human α2δ-1 enriched membranes (2.5 μg) were incubated with 15 nM of radiolabeled [3H]-Gabapentin in assay buffer containing Hepes-KOH 10 mM, pH 7.4. NSB (non specific binding) was measured by adding 10 μM pregabalin. The binding of the test compound was measured at five different concentrations. After 60 min incubation at 27° C., binding reaction was terminated by filtering through Multiscreen GF/C (Millipore) presoaked in 0.5% polyethyleneimine in Vacuum Manifold Station, followed by 3 washes with ice-cold filtration buffer containing 50 mM Tris-HCl, pH 7.4. Filter plates were dried at 60° C. for 1 hour and 30 μl of scintillation cocktail were added to each well before radioactivity reading. Readings were performed in a Trilux 1450 Microbeta radioactive counter (Perkin Elmer).

The target of assay [2] is T1, human μ-opioid receptor (Homo sapiens, UniProt P35372).
T1 construct: expressed in transfected cells; host or cells: CHO-K1
T1 sequence (P35372 whole entry): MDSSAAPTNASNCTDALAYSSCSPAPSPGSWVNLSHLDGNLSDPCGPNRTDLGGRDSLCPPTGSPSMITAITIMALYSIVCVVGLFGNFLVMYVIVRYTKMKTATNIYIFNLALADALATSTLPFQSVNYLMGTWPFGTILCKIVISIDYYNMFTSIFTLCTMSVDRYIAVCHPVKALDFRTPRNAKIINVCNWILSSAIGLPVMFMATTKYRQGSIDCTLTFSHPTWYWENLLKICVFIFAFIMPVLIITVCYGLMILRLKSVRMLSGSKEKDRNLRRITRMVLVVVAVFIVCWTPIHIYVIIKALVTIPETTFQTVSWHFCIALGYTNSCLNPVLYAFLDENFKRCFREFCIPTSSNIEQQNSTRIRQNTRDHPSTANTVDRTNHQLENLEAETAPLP
The assay can be described thus: Human μ-opioid receptor radioligand assay ([3H]-DAMGO). To be noted: transfected CHO-K1 cell membranes, 1 nM [3H]-DAMGO, binding expressed as Ki; read-out: Mu binding activity. The assay is classed as binding. As for the experimental part: Human μ-Opioid Receptor Radioligand Assay
To investigate binding properties of test compounds to human μ-opioid receptor, transfected CHO-K1 cell membranes and [^3H]-DAMGO (Perkin Elmer, ES-542-C), as the radioligand, were used. The assay was carried out with 20 μg of membrane suspension, 1 nM of [^3H]-DAMGO in either absence or presence of either buffer or 10 μM Naloxone for total and non-specific binding, respectively. Binding buffer contained Tris-HCl 50 mM, MgCl2 5 mM at pH 7.4. Plates were incubated at 27° C. for 60 minutes. After the incubation period, the reaction mix was then transferred to MultiScreen HTS, FC plates (Millipore), filtered and plates were washed 3 times with ice-cold 10 mM Tris-HCL (pH 7.4). Filters were dried and counted at approximately 40% efficiency in a MicroBeta scintillation counter (Perkin-Elmer) using EcoScint liquid scintillation cocktail. Preferably, transfected CHO-K1 cell membranes (20 μg) were incubated with 1 nM of [^3H]-DAMGO in assay buffer containing Tris-HCl 50 mM, MgCl2 5 mM at pH 7.4. NBS (non-specific binding) was measured by adding 10 μM Naloxone. The binding of the test compound was measured at five different concentrations. Plates were incubated at 27° C. for 60 minutes. After the incubation period, the reaction mix was then transferred to MultiScreen HTS, FC plates (Millipore), filtered and plates were washed 3 times with ice-cold 10 mM Tris-HCL (pH 7.4). Filters were dried and counted at approximately 40% efficiency in a MicroBeta scintillation counter (Perkin-Elmer) using EcoScint liquid scintillation cocktail.

Structures are written as SMILES. A value given as a limit tells only on which side of the number the result lay.

Sequence of Human α2δ-1 subunit of Cav2.2 calcium channel (P54289 25-1103): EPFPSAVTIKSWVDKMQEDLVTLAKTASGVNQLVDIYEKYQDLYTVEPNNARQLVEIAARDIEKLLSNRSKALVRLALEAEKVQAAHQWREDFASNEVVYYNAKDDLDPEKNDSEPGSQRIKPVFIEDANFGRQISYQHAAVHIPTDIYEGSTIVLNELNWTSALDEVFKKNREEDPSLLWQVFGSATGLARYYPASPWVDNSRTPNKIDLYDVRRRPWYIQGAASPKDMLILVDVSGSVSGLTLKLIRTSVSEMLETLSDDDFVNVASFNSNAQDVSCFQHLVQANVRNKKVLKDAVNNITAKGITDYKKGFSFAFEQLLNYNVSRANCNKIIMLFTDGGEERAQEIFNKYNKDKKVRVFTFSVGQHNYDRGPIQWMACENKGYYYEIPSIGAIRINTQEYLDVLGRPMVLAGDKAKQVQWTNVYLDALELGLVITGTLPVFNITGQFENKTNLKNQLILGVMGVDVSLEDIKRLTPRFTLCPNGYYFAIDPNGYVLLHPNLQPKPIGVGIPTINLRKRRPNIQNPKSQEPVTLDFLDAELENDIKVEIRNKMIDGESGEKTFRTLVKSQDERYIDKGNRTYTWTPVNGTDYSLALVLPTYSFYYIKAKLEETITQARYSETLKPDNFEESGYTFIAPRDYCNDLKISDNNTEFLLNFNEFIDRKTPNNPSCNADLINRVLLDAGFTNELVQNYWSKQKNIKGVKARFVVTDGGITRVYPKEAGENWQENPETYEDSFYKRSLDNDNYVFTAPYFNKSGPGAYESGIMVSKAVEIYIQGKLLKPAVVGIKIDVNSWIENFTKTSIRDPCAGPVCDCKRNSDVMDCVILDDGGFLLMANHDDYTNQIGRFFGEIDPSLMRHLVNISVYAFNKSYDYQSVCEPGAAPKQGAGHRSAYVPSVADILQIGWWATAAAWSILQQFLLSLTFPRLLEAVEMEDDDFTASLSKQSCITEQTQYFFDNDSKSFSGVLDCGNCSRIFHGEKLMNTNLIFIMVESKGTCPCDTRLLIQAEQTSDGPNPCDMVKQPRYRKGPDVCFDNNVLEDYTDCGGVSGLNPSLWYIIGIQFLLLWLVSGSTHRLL

`CCOc1ccc(-n2nc3c(-c4cccc(CN(C)C)c4)nnc(C)c3c2C)c(F)c1` [Ex 8, 1-(3-(2-(4-Ethoxy-2-fluorophenyl)-3,4-dimethyl-2H-pyrazolo[3,4-d]pyridazin-7-yl)phenyl)-N,N-dimethylmethanamine]: the Ki in assay [1] is 0.5 to 3 µM; in assay [2], more than 0.5 µM.
Taken in the same sequence, the figures for `CCOc1ccc(-n2nc3c(C4CCN(C(=O)OC(C)(C)C)CC4)nnc(C)c3c2C)c(F)c1` [Ex 13, tert-Butyl 4-(2-(4-ethoxy-2-fluorophenyl)-3,4-dimethyl-2H-pyrazolo[3,4-d]pyridazin-7-yl)piperidine-1-carboxylate] were not below 5 µM and more than 0.5 µM.
Taken in the same sequence, the figures for `CCOc1ccc(-n2nc3c(C4CNC4)nnc(C)c3c2C)c(F)c1` [Ex 22, 7-(Azetidin-3-yl)-2-(4-ethoxy-2-fluorophenyl)-3,4-dimethyl-2H-pyrazolo[3,4-d]pyridazine] were not below 5 µM and more than 0.5 µM.
Consider `CCOc1ccc(-n2nc3c(C4=CN(C(=O)OC(C)(C)C)CCC4)nnc(C)c3c2C)c(F)c1` [Ex 3, tert-Butyl 5-(2-(4-ethoxy-2-fluorophenyl)-3,4-dimethyl-2H-pyrazolo[3,4-d]pyridazin-7-yl)-3,4-dihydropyridine-1(2H)-carboxylate], for which the Ki in assay [1] was not below 5 µM; in assay [2] it was more than 0.5 µM.
Consider `CCOc1ccc(-n2nc3c(C4CCN(Cc5ccc(C(F)(F)F)cn5)CC4)nnc(C)c3c2C)c(F)c1` [Ex 56, 2-(4-Ethoxy-2-fluorophenyl)-3,4-dimethyl-7-(1-((5-(trifluoromethyl)pyridin-2-yl)methyl)piperidin-4-yl)-2H-pyrazolo[3,4-d]pyridazine], for which the Ki in assay [1] was 0.5 to 3 µM; in assay [2], more than 0.5 µM.
As to `CCOc1ccc(-n2nc3c(C4=CCN(C(=O)OC(C)(C)C)CC4)nnc(C)c3c2C)c(F)c1` [Ex 1, tert-Butyl 4-(2-(4-ethoxy-2-fluorophenyl)-3,4-dimethyl-2H-pyrazolo[3,4-d]pyridazin-7-yl)-3,6-dihydropyridine-1(2H)-carboxylate], the Ki is not below 5 µM in assay [1] and more than 0.5 µM in assay [2].
As to `CCOc1ccc(-n2nc3c(C4CCN(CCc5ccncc5)CC4)nnc(C)c3c2C)c(F)c1` [Ex 57, 2-(4-Ethoxy-2-fluorophenyl)-3,4-dimethyl-7-(1-(2-(pyridin-4-yl)ethyl)piperidin-4-yl)-2H-pyrazolo[3,4-d]pyridazine], the Ki was 0.5 to 3 µM in assay [1] and more than 0.5 µM in assay [2].
As for `CCOc1ccc(-n2nc3c(C4CCN(Cc5ncccc5OC)CC4)nnc(C)c3c2C)c(F)c1` [Ex 50, 2-(4-Ethoxy-2-fluorophenyl)-7-(1-((3-methoxypyridin-2-yl)methyl)piperidin-4-yl)-3,4-dimethyl-2H-pyrazolo[3,4-d]pyridazine], the Ki is 0.5 to 3 µM in assay [1] and more than 0.5 µM in assay [2].
On to `CCOc1ccc(-n2nc3c(C4CCN(Cc5cc(C(F)(F)F)ccn5)CC4)nnc(C)c3c2C)c(F)c1` [Ex 52, 2-(4-Ethoxy-2-fluorophenyl)-3,4-dimethyl-7-(1-((4-(trifluoromethyl)pyridin-2-yl)methyl)piperidin-4-yl)-2H-pyrazolo[3,4-d]pyridazine], for which the Ki is 3 to 5 µM in assay [1] and more than 0.5 µM in assay [2].
As to `CCOc1ccc(-n2nc3c(-c4ccc5ncn(CCNC(=O)OC(C)(C)C)c5c4)nnc(C)c3c2C)c(F)c1` [Ex 11, tert-butyl (2-(6-(2-(4-ethoxy-2-fluorophenyl)-3,4-dimethyl-2H-pyrazolo[3,4-d]pyridazin-7-yl)-1H-benzo[d]imidazol-1-yl)ethyl)carbamate], the Ki was more than 5 µM in assay [1] and more than 0.5 µM in assay [2].
For `CCOc1ccc(-n2nc3c(CCCN(C)C(=O)OC(C)(C)C)nnc(C)c3c2C)c(F)c1` [Ex 17, tert-Butyl-(3-(2-(4-ethoxy-2-fluorophenyl)-3,4-dimethyl-2H-pyrazolo[3,4-d]pyridazin-7-yl)propyl)(methyl)carbamate] the same measures were not below 5 µM and more than 0.5 µM.
For `CCOc1ccc(-n2nc3c(C4CCN(Cc5ncccc5O)CC4)nnc(C)c3c2C)c(F)c1` [Ex 31, 2-((4-(2-(4-Ethoxy-2-fluorophenyl)-3,4-dimethyl-2H-pyrazolo[3,4-d]pyridazin-7-yl)piperidin-1-yl)methyl)pyridin-3-ol] the same measures were 0.5 to 3 µM and more than 0.5 µM.
In the case of `CCOc1ccc(-n2nc3c(C4CCN(Cc5ccc(F)cc5)CC4)nnc(C)c3c2C)c(F)c1` [Ex 27, 2-(4-Ethoxy-2-fluorophenyl)-7-(1-(4-fluorobenzyl)piperidin-4-yl)-3,4-dimethyl-2H-pyrazolo[3,4-d]pyridazine], the Ki in assay [1] was 0.5 to 3 µM; in assay [2] it was more than 0.5 µM.
As for `CCOc1ccc(-n2nc3c(C4CCN(CCC5CCOCC5)CC4)nnc(C)c3c2C)c(F)c1` [Ex 34, 2-(4-Ethoxy-2-fluorophenyl)-3,4-dimethyl-7-(1-(2-(tetrahydro-2H-pyran-4-yl)ethyl)piperidin-4-yl)-2H-pyrazolo[3,4-d]pyridazine], the Ki in assay [1] is 3 to 5 µM; in assay [2], more than 0.5 µM.
Consider `CCOc1ccc(-n2nc3c(CCNC(=O)OC(C)(C)C)nnc(C)c3c2C)c(F)c1` [Ex 63, tert-Butyl (2-(2-(4-ethoxy-2-fluorophenyl)-3,4-dimethyl-2H-pyrazolo[3,4-d]pyridazin-7-yl)ethyl)carbamate], for which the Ki in assay [1] is not below 5 µM; in assay [2] it was more than 0.5 µM.
For `CCOc1ccc(-n2nc3c(C4CCN(Cc5ccc(Cl)cn5)CC4)nnc(C)c3c2C)c(F)c1` [Ex 53, 7-(1-((5-Chloropyridin-2-yl)methyl)piperidin-4-yl)-2-(4-ethoxy-2-fluorophenyl)-3,4-dimethyl-2H-pyrazolo[3,4-d]pyridazine] the same measures were 0.5 to 3 µM and more than 0.5 µM.
As for `CCOc1ccc(-n2nc3c(CC#N)nnc(C)c3c2C)c(F)c1` [Ex 62, 2-(2-(4-Ethoxy-2-fluorophenyl)-3,4-dimethyl-2H-pyrazolo[3,4-d]pyridazin-7-yl)acetonitrile], the Ki in assay [1] is 0.5 to 3 µM; in assay [2], more than 0.5 µM.
In the case of `CCOc1ccc(-n2nc3c(-c4ccc5ncn(CCN)c5c4)nnc(C)c3c2C)c(F)c1` [Ex 24, 2-(6-(2-(4-Ethoxy-2-fluorophenyl)-3,4-dimethyl-2H-pyrazolo[3,4-d]pyridazin-7-yl)-1H-benzo[d]imidazol-1-yl)ethan-1-amine], the Ki in assay [1] was 3 to 5 µM; in assay [2] it was more than 0.5 µM.
For `CCOc1ccc(-n2nc3c(C4CCN(CC5CC5)CC4)nnc(C)c3c2C)c(F)c1` [Ex 32, 7-(1-(Cyclopropyl-methyl)piperidin-4-yl)-2-(4-ethoxy-2-fluorophenyl)-3,4-dimethyl-2H-pyrazolo[3,4-d]pyridazine] the same measures were 0.5 to 3 µM and more than 0.5 µM.
For `CCOc1ccc(-n2nc3c(/C=C/CN(C)C(=O)OC(C)(C)C)nnc(C)c3c2C)c(F)c1` [Ex 5, tert-Butyl (E)-(3-(2-(4-ethoxy-2-fluorophenyl)-3,4-dimethyl-2H-pyrazolo[3,4-d]pyridazin-7-yl)allyl)(methyl)carbamate] the same measures were not below 5 µM and more than 0.5 µM.
Taken in the same sequence, the figures for `CCOc1ccc(-n2nc3c(CCN)nnc(C)c3c2C)c(F)c1` [Ex 23, 2-(2-(4-Ethoxy-2-fluorophenyl)-3,4-dimethyl-2H-pyrazolo[3,4-d]pyridazin-7-yl)ethan-1-amine] were not below 5 µM and more than 0.5 µM.
In the case of `CCOc1ccc(-n2nc3c(C4CCN(C)CC4)nnc(C)c3c2C)c(F)c1` [Ex 14, 2-(4-Ethoxy-2-fluorophenyl)-3,4-dimethyl-7-(1-methylpiperidin-4-yl)-2H-pyrazolo[3,4-d]pyridazine], the Ki in assay [1] was 0.5 to 3 µM; in assay [2], more than 0.5 µM.
Take `CCOc1ccc(-n2nc3c(C4CCN(CC(O)c5ccccc5)CC4)nnc(C)c3c2C)c(F)c1` (stereo not drawn) [Ex 58, 2-(4-(2-(4-Ethoxy-2-fluorophenyl)-3,4-dimethyl-2H-pyrazolo[3,4-d]pyridazin-7-yl)piperidin-1-yl)-1-phenylethan-1-ol]: the Ki was 0.5 to 3 µM in assay [1] and more than 0.5 µM in assay [2].
Regarding `CCOc1ccc(-n2nc3c(C4CCN(Cc5cccnc5)CC4)nnc(C)c3c2C)c(F)c1` [Ex 29, 2-(4-Ethoxy-2-fluorophenyl)-3,4-dimethyl-7-(1-(pyridin-3-ylmethyl)piperidin-4-yl)-2H-pyrazolo[3,4-d]pyridazine], the Ki was 0.5 to 3 µM in assay [1] and more than 0.5 µM in assay [2].

The record behind these values is patent publication US20200190087A1 (priority 2016, published 2020).
